Experimental data: US20250213547A1, “METHODS OF TREATING NEUROLOGICAL DISEASES” (priority 2022, published 2025)
Like-named read-outs stand apart in the source and are kept apart here.

Legend:
plasma 24HC = experiment: Single dose pharmacodynamics: plasma 24HC; assay type: in vivo, human
Method: The concentration of 24HC was measured by obtaining an 8 ml blood sample collected 30 minutes pre-dose time and 0.5, 1, 2, 4, 6, 8, 12, and 16 hours prior to dosing day, and then 30 minutes pre-dose time and at times 0.5, 1, 2, 4, 6, 8, 12, 16, 24, 48, 72, and 96 hours post-dose. Plasma 24HC levels were measured by incubating plasma in sodium hydroxide and methanol and then performing liquid-liquid extraction and HPLC-MS/MS multiple reaction monitoring. […] Assay quality control measures, parameter analyses, and statistical analyses were performed as described in example 3. […] All dosage groups returned to 24HC baseline values by 96 hours.

clinical [1] = conditions: human, in vivo, 300 mg
Source text: This study included nine patients in a three-sequence regimen altering fed state and formulation.
Aside from differences in a few selected time points, PK data collection procedures and analyses are similar to example 2.

clinical [2] = conditions: human, in vivo; for AUC: AUC24 / mean steady-state area under the curve
Method: Soticlestat was administered in tablet formulation during fasting condition. […] Blood samples were obtained before the first morning dose, and at 1, 3, and 5 hours post-dose. On days 11 and 21, blood samples were taken before the morning dose and 1 hour post-dose. In Part B, patients were administered 200 mg BID for days 31-40, followed by 300 mg BID for days 41-85. On days 31, 41, and 85, blood samples were taken before the morning dose. […] The AUC24 for doses 100, 200, and 300 mg BID were 562.5, 1437, and 2188 ng×h/mL, respectively.
Blood samples were collected before and after the morning dose on days 1, 11, and 21, and before and after the morning dose on days 31, 41, and 85.

[3] = Healthy Japanese subjects, Part 1 (single dose 200, 600, 1200 mg tablets): PK of TAK-935 and M-I; assay type: in vivo, human; conditions: plasma; for Vd/F: read-out: Vz/F; for half-life: read-out: t1/2z (terminal disposition phase half-life) (converted); for AUC: read-out: Mean AUC24
Method: This study consisted of 2 parts, and was a randomized, double-blind, placebo-controlled study to assess safety, tolerability, and PK and PD of TAK-935 when administered orally in healthy Japanese subjects.
On Day 1 of each dose level, a single dose of TAK-935 or placebo was administered, and safety, PK and PD were evaluated.
After the screening visit, eligible participants checked—in on Day-2. On Day 1, eligible participants were randomized 6:2 to TAK-935 or placebo in each dose group in double-blinded fashion. No stratification variables were used for randomization. On the same day, study drug was administered by oral administration of single dosing of TAK-935 to each cohort at each dose level. The subjects were discharged on Day 3. Intensive PK samplings were performed from Day 1 to Day 3.
Subjects received a single dose of TAK-935 or placebo of 200 mg, 600 mg, or 1200 mg with 150 mL of water, after fasting for at least 10 hours and remained fasted until 4 hours after dosing.
Blood samples for PK analysis of TAK-935 and its metabolites (M-I) were collected into blood collection tubes (vacutainer) containing the anticoagulant K2EDTA (Table 40e and Table 40f).
The PK parameters of TAK-935 and its metabolites (M-I) were determined from the concentration-time profiles for all evaluable subjects. Actual sampling times, rather than scheduled sampling times, were used in all computations involving sampling times. The following PK parameters were calculated from plasma concentrations of TAK-935 and its metabolites (M-I), unless otherwise specified: […]

[4] = TAK-935 200 mg single dose, mean
[5] = TAK-935 600 mg single dose, mean
[6] = TAK-935 1200 mg single dose, mean
[7] = human, oral, TAK-935 200 mg single dose, mean
[8] = human, oral, TAK-935 600 mg single dose, mean
[9] = human, oral, TAK-935 1200 mg single dose, mean
[10] = human, oral, TAK-935, single dose 200 mg
[11] = human, oral, TAK-935, single dose 600 mg
[12] = human, oral, TAK-935, single dose 1200 mg

**Q.** Which results are given for `O=C(c1cccnc1-c1ccncc1)N1CCC(O)(Cc2ccccc2)CC1` [soticlestat]?
**A.** maximum 24HC decrease (plasma 24HC; 900 mg single dose, 16 hours post-dose): approximately 23%; AUEC96 decrease compared to placebo (plasma 24HC; single dose): approximately 28.7%; AUC∞ lower, tablet fed than fasting (clinical [1]): 10.6%; Tmax (clinical [1]): 31.8 min; mean Cmax decrease, tablet fed compared to fasted (clinical [1]): 59.7%; AUC∞ lower with tablet compared with oral solution (clinical [1]; po): 15.8%; Cmax lower with tablet compared with oral solution (clinical [1]; po): 36.9%; Tmax (clinical [1]; po): 21 min; clearance (clinical [2]; 100 mg): 4320 mL/min; AUC (clinical [2]; 100 mg): 562 ng·h/mL; Cmax (clinical [2]; 100 mg, Cmax steady state, mean): 270 ng/mL; clearance (clinical [2]; 200 mg): 3260 mL/min; AUC (clinical [2]; 200 mg): 1440 ng·h/mL; Cmax (clinical [2]; 200 mg, Cmax steady state, mean): 640 ng/mL; clearance (clinical [2]; 300 mg): 3170 mL/min; AUC (clinical [2]; 300 mg): 2190 ng·h/mL; Cmax (clinical [2]; 300 mg, Cmax steady state, mean): 975 ng/mL; Cmax (clinical [2]; Study TAK-935-2001, 200 mg BID, Mean, read-out: Cmax, ss): 1270 ng/mL; CL/F [3, 4]: 470.8 L/h; Lambda z [3, 4]: 0.1608 h⁻¹; AUC∞ [3, 5]: 3917 ng·h/mL; CL/F [3, 5]: 178.4 L/h; Lambda z [3, 5]: 0.1634 h⁻¹; Tmax ([3]; TAK-935 600 mg single dose, median): 30 min; CL/F [3, 6]: 119.8 L/h; Lambda z [3, 6]: 0.1922 h⁻¹; AUC(0-inf) [3, 7]: 720 ng·h/mL; AUC(0-t) [3, 7]: 695 ng·h/mL; Vd/F [3, 7]: 4260 L; half-life [3, 7]: 353 min; AUC(0-t) [3, 8]: 3860 ng·h/mL; Vd/F [3, 8]: 2340 L; half-life [3, 8]: 522 min; AUC(0-inf) [3, 9]: 11400 ng·h/mL; AUC(0-t) [3, 9]: 11400 ng·h/mL; Vd/F [3, 9]: 769 L; half-life [3, 9]: 304 min; Tmax ([3]; human, oral, 200 mg, TAK-935 200 mg single dose, median, read-out: tmax): 45 min; Tmax ([3]; human, oral, 1200 mg, TAK-935 1200 mg single dose, median, read-out: tmax): 30 min; Tmax ([3]; human, oral, 1200 mg, TAK-935, single dose 200, 600, 1200 mg, read-out: Tmax (median), range): 30 to 45 min; Cmax [3, 10]: 850 ng/mL; AUC [3, 10]: 698 ng·h/mL; Cmax [3, 11]: 3280 ng/mL; AUC [3, 11]: 3860 ng·h/mL; Cmax [3, 12]: 10200 ng/mL; AUC [3, 12]: 11300 ng·h/mL
